Measurements published in patent US4496655A, “Process for the production of tyramine oxidase” (Toyo Jozo Kabushiki Kaisha, priority 1981, dated 1985).
Like-named read-outs stand apart in the source and are kept apart here.

Columns and labels:
tyramine oxidase [1] = experiment: Effect of various substances on the activity of tyramine oxidase; type: biochemical, Arthrobacter sp. B-0813
Experimental: (§1) An enzyme solution (0.05 ml) is added to a reaction mixture (0.5 ml) consisting of the following, and the volume is increased to 1.0 ml by adding water and the mixture is incubated at 37° C. for 10 minutes.
(§2) Water (0.1 ml) is added in place of enzyme solution as a control. The reaction mixture is measured at 490 nm.
(§3) Enzyme activity is calculated by the following equation: [formula] wherein Δ490 nm is the absorption value at Δ490 nm for 10 minutes, and f is the dilution ratio.

tyramine oxidase [2] = experiment: Substrate specificity of tyramine oxidase; type: biochemical, Arthrobacter sp. B-0813; set-up: Relative activity (%) as substrate: concentration or dose not given beside the values; settings: for Relative activity (%) as substrate: substrate added to the reaction mixture, tyramine = 100.0
Experimental: as §1, §2, §3
Substrate specificity was measured by adding various substrates to the reaction mixture.

tyramine oxidase [3] = experiment: Km-value of tyramine oxidase; type: biochemical, Arthrobacter sp. B-0813; settings: substrate tyramine
Experimental: as §1

[4] = test system: Arthrobacter sp. B-0813 FERM-P No. 6240; type: cell-based; settings: arthrobacter culture
Experimental: A medium (100 ml, pH 7.5) comprising by weight soybean oil 0.8%, corn steep liquor 1.0%, meat extract 0.1%, polypeptone 1.0%, NaCl 0.3% and β-phenylethylamine 0.15% was put into a 500 ml Erlenmeyer flask and sterilized at 120° C. for 20 minutes. Arthrobacter sp. B-0813 FERM-P No. 6240 was inoculated into the medium and the mixture was cultured at 30° C. for 20 hours to prepare a seed culture. The medium containing the same components (20 lit.) together with added 0.2% of antifoam agent (silicone AF-145), (Asahi Chem.) was poured into a 30 lit. jar fermenter and the above two flasks of seed culture were inoculated therein, then the medium was aerobically cultured with agitation at 250 rpm and with 20 lit./min. aeration for 20 hours. The tyramine oxidase activity of the cultured broth was 1.3 U/ml.
When tyramine or butylamine was added to the medium, a more than 200-fold increase in the yield of enzyme was observed as compared with no addition of these amines. The amount of such addition is 0.1-0.2%, preferably 0.15%. The culturing temperature is generally 25°-35° C. and the culturing time is 10-30 hours.

[5] = amount added 5 mM, control (no addition) = 100.0
[6] = amount added 0.025 mM, control (no addition) = 100.0

| Compound | Relative Activity (%) (tyramine oxidase [1]; [5]) | Relative activity (%) as substrate (tyramine oxidase [2]) [%] | further results |
| --- | --- | --- | --- |
| [Ba+2].[Cl-].[Cl-] [BaCl2] | 96.6 |  |  |
| NCc1ccccc1 [Benzylamine] |  | 0.0 |  |
| [Ca+2].[Cl-].[Cl-] [CaCl2] | 86.2 |  |  |
| CCCCCCCCCCCCCCCC[N+](C)(C)C.[Cl-] [Cetyltrimethylammonium chloride] |  |  | Relative Activity (%) (tyramine oxidase [1]; [6]): 0.0% |
| [Cl-].[Cl-].[Co+2] [CoCl2] | 86.2 |  |  |
| O=C(O)CN(CCN(CC(=O)O)CC(=O)O)CC(=O)O [EDTA] |  |  | Relative Activity (%) (tyramine oxidase [1]): 100.0% |
| CCN [Ethylamine] |  | 0.0 |  |
| Cc1cc2nc3c(=O)[nH]c(=O)nc-3n(C[C@H](O)[C@H](O)[C@H](O)COP(=O)(O)OP(=O)(O)OC[C@H]3O[C@@H](n4cnc5c(N)ncnc54)[C@H](O)[C@@H]3O)c2cc1C [FAD] |  |  | Relative Activity (%) (tyramine oxidase [1]; amount added 0.1 mM, control (no addition) = 100.0): 75.4% |
| Cc1cc2nc3c(=O)[nH]c(=O)nc-3n(C[C@H](O)[C@H](O)[C@H](O)COP(=O)(O)O)c2cc1C [FMN, flavin mononucleotide] |  |  | Effect of addition on the activity of the enzyme (in words) (tyramine oxidase [1]): increases the activity; Relative Activity (%) (tyramine oxidase [1]; amount added 0.01 mM, control (no addition) = 100.0): 108.8% |
| [Cl-].[Li+] [LiCl] | 82.8 |  |  |
| CN [Methylamine] |  | 0.0 |  |
| [Cl][Mn][Cl] [MnCl2] | 82.8 |  |  |
| Cl.N [NH4 Cl] | 96.6 |  |  |
| [Na+].[Na+].[O]=[Mo](=[O])([O-])[O-] [NaMoO4] | 39.7 |  |  |
| [N-]=[N+]=[N-].[Na+] [NaN3] | 98.3 |  |  |
| NCCc1ccc(O)cc1 [Tyramine, p-hydroxyphenylethylamine] |  | 100.0 | Km (tyramine oxidase [3]): 27 µM; Activity of the enzyme on the substrate (in words) (tyramine oxidase [2]): specific activity; Increase in the yield of enzyme compared with no addition of these amines [4]: more than 200 fold |
| CCCCN [n-butylamine] |  | 45.3 | Activity of the enzyme on the substrate (in words) (tyramine oxidase [2]): activity; Increase in the yield of enzyme compared with no addition of these amines [4]: more than 200 fold |
| O=C(O)c1cc[c]([Hg][Cl])cc1 [p-chloromercuribenzoate (PCMB), p-chloromercuribenzoate] |  |  | Relative Activity (%) (tyramine oxidase [1]; amount added 0.2 mM, control (no addition) = 100.0): 79.3% |
| NCCc1ccc(Cl)cc1 [p-chlorophenylethylamine] |  | 47.9 | Activity of the enzyme on the substrate (in words) (tyramine oxidase [2]): activity |
| NCCc1ccccc1 [β-phenylethylamine] |  | 54.7 | Activity of the enzyme on the substrate (in words) (tyramine oxidase [2]): activity |
| Laurylbenzene sulfonate [Laurylbenzene sulfonate (LBS)] |  |  | Relative Activity (%) (tyramine oxidase [1]; amount added 0.05 mM, control (no addition) = 100.0): 63.9% |
| Triton X-100 |  |  | Relative Activity (%) (tyramine oxidase [1]; [6]): 96.7% |
